Laboratory results taken from paper PMC6385203, “Mutations in the palm domain disrupt modulation of acid-sensing ion channel 1a currents by neuropeptides” (Scientific Reports, 2019).
Peptide text beside a SMILES is read from it.

Target: T1, WT ASIC1a (Homo sapiens, UniProt P78348)
T1 construct: expressed in transfected cells; host or cells: Xenopus laevis oocytes injected with cRNA
T1 sequence (P78348 1-528): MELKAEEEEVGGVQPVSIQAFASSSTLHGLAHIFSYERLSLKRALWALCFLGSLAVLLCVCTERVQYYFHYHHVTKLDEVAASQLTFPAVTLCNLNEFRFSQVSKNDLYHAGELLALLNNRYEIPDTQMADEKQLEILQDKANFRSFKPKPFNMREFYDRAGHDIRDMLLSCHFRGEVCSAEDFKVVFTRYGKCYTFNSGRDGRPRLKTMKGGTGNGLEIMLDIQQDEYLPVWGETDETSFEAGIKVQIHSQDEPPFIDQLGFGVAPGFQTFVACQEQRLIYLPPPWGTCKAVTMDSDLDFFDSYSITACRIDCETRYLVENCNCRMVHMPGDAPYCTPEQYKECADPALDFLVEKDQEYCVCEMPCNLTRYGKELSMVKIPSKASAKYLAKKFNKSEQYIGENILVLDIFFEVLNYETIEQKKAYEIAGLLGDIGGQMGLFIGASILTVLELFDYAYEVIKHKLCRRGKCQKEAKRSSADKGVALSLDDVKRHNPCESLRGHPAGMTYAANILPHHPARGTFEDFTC
Experiment: Time course of appearance of Isust (association), WT
Format: cell-based
Conditions: pH 7.4, 50 μM FRRFa pre-applied for different times at pH7.4, n = 4, mean ± SEM, read-out: association rate constant kon
Method: ASIC1a function was measured by two-electrode voltage-clamp after recombinant expression in Xenopus oocytes. The channels were activated by a pH5 stimulation solution from a conditioning solution of pH7.4. […] We measured the rate of FRRFa unbinding, as the disappearance of the sustained current after a 50-s incubation with 50 μM FRRFa, as 0.025 ± 0.005 s^−1 (n = 8, Fig. 2b). […] To determine the kinetics of FRRFa association on ASIC1a, we pre-applied the peptide at a concentration of 50 μM for different time periods in the conditioning solution and measured the sustained current fraction.
Figure 2 FRRFa modulation of ASIC1a currents is only partially affected by acidic pocket mutations. (a) FRRFa concentration-response curve. Top, representative current traces. Bottom, Isust/Ipeak ratio induced by pH5 as a function of the FRRFa concentration (pre-applied during 45–50 s and present in pH5 solution), n = 7–11. (b) Time course of disappearance of the FRRFa-induced Isust. FRRFa at 50 μM was applied for 45 s, and current was measured once every minute during washout with FRRFa-free solution. Exponential fit shown as solid line (n = 4, error bars are smaller than the symbols). (c) Time course of appearance of Isust. Oocytes were exposed for various durations to 50 μM FRRFa in the pH7.4 conditioning solution, before activation of ASIC currents with pH5, including 50 μM FRRFa. […]

**Q.** Which kon does the source give for `N=C(N)NCCC[C@H](NC(=O)[C@H](CCCNC(=N)N)NC(=O)[C@@H](N)Cc1ccccc1)C(=O)N[C@@H](Cc1ccccc1)C(N)=O` [FRRFa, Phe-Arg-Arg-Phe-amide] (H-FRRF-NH2) here?
**A.** Its kon is 162 ± 84 M⁻¹ s⁻¹.
